# Values joined by “and” are separate entries in the source; they are usually repeats but may differ in a detail not shown here. Identical values can stand only once.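 Protocol summary: plate cells (96-well), add compound at 5 concentrations, incubate 48 h, interpolate endpoints linearly. Abbreviation: GI50, concentration required for 50% inhibition of growth. TGI marks complete inhibition of growth.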
# Columns and labels:
# Test in all cases: NCI-60 cell line screen, 48 h
# [1] = tested on: SW-620 colon
# [2] = tested on: HT29 colon
# [3] = tested on: NCI-H226 lung
# [4] = tested on: 786-0 renal
# [5] = tested on: OVCAR-8 ovarian
# [6] = tested on: SF-539 CNS
# [7] = tested on: OVCAR-5 ovarian
# [8] = tested on: SNB-19 CNS
# [9] = tested on: SK-MEL-2 melanoma
# [10] = tested on: LOX IMVI melanoma
# [11] = tested on: IGROV1 ovarian
# [12] = tested on: U251 CNS
# [13] = tested on: CCRF-CEM leukemia
# [14] = tested on: UACC-257 melanoma
# [15] = tested on: HCC-2998 colon
# [16] = tested on: DU-145 prostate
# [17] = tested on: HL-60(TB) leukemia
# [18] = tested on: SF-268 CNS
# [19] = tested on: ACHN renal
# [20] = tested on: KM12 colon
# [21] = tested on: M14 melanoma
# [22] = tested on: COLO 205 colon
# [23] = tested on: HCT-15 colon
# [24] = tested on: SN12C renal
# [25] = tested on: HS 578T breast
# [26] = tested on: HOP-92 NSCLC
# [27] = tested on: A498 renal
# [28] = tested on: NCI-H23 lung
# [29] = tested on: MALME-3M melanoma
# [30] = tested on: PC-3 prostate
# [31] = tested on: MDA-MB-231 breast
# [32] = tested on: MCF7 breast
# [33] = tested on: HOP-62 NSCLC
# [34] = tested on: TK-10 renal
# [35] = tested on: SK-OV-3 ovarian
# [36] = tested on: CAKI-1 renal
# [37] = tested on: NCI-H460 lung
# [38] = tested on: RXF 393 renal
# [39] = tested on: OVCAR-4 ovarian
# [40] = tested on: UO-31 renal
# [41] = tested on: NCI-H522 lung
# [42] = tested on: SF-295 CNS
# [43] = tested on: HCT-116 colon
# [44] = tested on: T-47D breast
# [45] = tested on: MDA-MB-435
# [46] = tested on: SR leukemia
# [47] = tested on: SNB-75 CNS
# [48] = tested on: NCI/ADR-RES ovarian
# [49] = tested on: EKVX NSCLC
# [50] = tested on: SK-MEL-28 melanoma
# [51] = tested on: UACC-62 melanoma
# [52] = tested on: A549 NSCLC
# [53] = tested on: K-562 leukemia
# [54] = tested on: RPMI-8226 leukemia
# [55] = tested on: BT-549 breast
# [56] = tested on: MOLT-4 leukemia
# [57] = tested on: OVCAR-3 ovarian
# [58] = tested on: SK-MEL-5 melanoma
# [59] = tested on: MDA-N
structure (smiles),measurement,setting,value
Cn1cnc2c(F)c(Nc3ccc(Br)cc3Cl)c(C(=O)NOCCO)cc21,GI50,[1],0.0436 µM and 0.0226 µM
same,TGI,[1],> 100 µM
same,GI50,[2],0.0278 µM and 0.0265 µM
same,TGI,[2],> 100 µM
same,GI50,[3],> 10 µM and 23.9 µM
same,TGI,[3],> 100 µM
same,GI50,[4],> 10 µM and 60.6 µM
same,TGI,[4],> 100 µM
same,GI50,[5],> 10 µM and 67.9 µM
same,TGI,[5],> 100 µM
same,GI50,[6],> 10 µM and 22.4 µM
same,TGI,[6],> 100 µM
same,TGI,[7],> 100 µM
same,GI50,[8],> 10 µM and 40.4 µM
same,TGI,[8],> 100 µM
same,GI50,[9],0.0262 µM and < 0.0122 µM
same,TGI,[9],0.78 µM and 0.565 µM
same,GI50,[10],1.26 µM and 1.45 µM
same,TGI,[10],> 80.9 µM
same,GI50,[11],0.264 µM and 1.34 µM
same,TGI,[11],> 100 µM
same,GI50,[12],> 8.16 µM and 30.1 µM
same,TGI,[12],> 100 µM
same,GI50,[13],> 94.6 µM
same,TGI,[13],> 100 µM
same,GI50,[14],0.0212 µM and < 0.0177 µM
same,TGI,[14],0.207 µM and 0.0755 µM
same,GI50,[15],0.0213 µM and < 0.0171 µM
same,TGI,[15],> 10 µM and 2.77 µM
same,GI50,[16],> 10 µM and 74.6 µM
same,TGI,[16],> 100 µM
same,GI50,[17],0.0218 µM
same,TGI,[17],> 10 µM and 5.35 µM
same,GI50,[18],> 10 µM and 60.5 µM
same,TGI,[18],> 100 µM
same,GI50,[19],9.92 µM and 29 µM
same,TGI,[19],> 100 µM
same,GI50,[20],0.685 µM and 0.847 µM
same,TGI,[20],> 100 µM
same,GI50,[21],0.0271 µM and < 0.0144 µM
same,TGI,[21],> 6.91 µM and 4.53 µM
same,GI50,[22],0.0211 µM and < 0.0137 µM
same,TGI,[22],> 15.1 µM
same,GI50,[23],> 10 µM and 40.5 µM
same,TGI,[23],> 100 µM
same,GI50,[24],> 10 µM and 47.6 µM
same,TGI,[24],> 100 µM
same,GI50,[25],> 10 µM and 32.5 µM
same,TGI,[25],> 100 µM
same,GI50,[26],0.197 µM and 0.235 µM
same,TGI,[26],6.14 µM and 8.67 µM
same,GI50,[27],0.103 µM and 0.16 µM
same,TGI,[27],1.86 µM and 4.1 µM
same,GI50,[28],0.74 µM and 1.04 µM
same,TGI,[28],> 100 µM
same,GI50,[29],< 0.0187 µM
same,TGI,[29],0.018 µM
same,GI50,[30],> 100 µM
same,TGI,[30],> 100 µM
same,GI50,[31],0.822 µM and 1.94 µM
same,TGI,[31],> 100 µM
same,GI50,[32],> 100 µM
same,TGI,[32],> 100 µM
same,GI50,[33],0.399 µM and 0.232 µM
same,TGI,[33],> 100 µM
same,GI50,[34],0.183 µM and 1.62 µM
same,TGI,[34],> 100 µM
same,GI50,[35],> 10 µM and 63.4 µM
same,TGI,[35],> 100 µM
same,GI50,[36],> 2.6 µM and 17.9 µM
same,TGI,[36],> 100 µM
same,GI50,[37],> 10 µM and 32.3 µM
same,TGI,[37],> 100 µM
same,GI50,[38],1.9 µM and 9.28 µM
same,TGI,[38],> 10 µM and 78 µM
same,GI50,[39],> 10 µM and 22.7 µM
same,TGI,[39],> 100 µM
same,GI50,[40],1.45 µM and 3.38 µM
same,TGI,[40],> 66 µM
same,GI50,[41],> 10 µM and 61.3 µM
same,TGI,[41],> 100 µM
same,GI50,[42],> 10 µM and 67.2 µM
same,TGI,[42],> 100 µM
same,GI50,[43],0.648 µM and 1.07 µM
same,TGI,[43],> 100 µM
same,GI50,[44],> 10 µM and 82.4 µM
same,TGI,[44],> 100 µM
same,GI50,[45],0.0709 µM and 0.0294 µM
same,TGI,[45],> 100 µM
same,GI50,[46],> 10 µM and 5.85 µM
same,TGI,[46],> 33.8 µM
same,GI50,[47],> 10 µM and 60.4 µM
same,TGI,[47],> 100 µM
same,GI50,[48],> 100 µM
same,TGI,[48],> 100 µM
same,GI50,[49],0.734 µM and 3.88 µM
same,TGI,[49],> 100 µM
same,GI50,[50],0.0269 µM and 0.0268 µM
same,TGI,[50],> 2.81 µM and 2.52 µM
same,GI50,[51],0.0123 µM and 0.0212 µM
same,GI50,[52],6.85 µM and 10.8 µM
same,TGI,[52],> 100 µM
same,GI50,[53],> 10 µM and 12.3 µM
same,TGI,[53],> 100 µM
same,GI50,[54],> 10 µM and 28.2 µM
same,TGI,[54],> 100 µM
same,GI50,[55],> 10 µM and 30 µM
same,TGI,[55],> 100 µM
same,GI50,[56],> 10 µM and 62.2 µM
same,TGI,[56],> 100 µM
same,GI50,[57],> 10 µM and 62.9 µM
same,TGI,[57],> 100 µM
same,GI50,[58],2.4 µM and 0.95 µM
same,TGI,[58],> 100 µM
Cc1c(CCN=P(c2ccccc2)(c2ccccc2)c2ccccc2)c(=O)n2c([nH]c3ccccc32)c1C#N,TGI,[1],> 10 µM
same,TGI,[2],> 10 µM
same,TGI,[4],> 10 µM
same,TGI,[5],> 10 µM
same,TGI,[10],> 10 µM
same,TGI,[11],> 10 µM
same,TGI,[13],> 10 µM
same,TGI,[14],> 10 µM
same,TGI,[15],> 10 µM
same,TGI,[16],> 10 µM
same,TGI,[17],> 10 µM
same,TGI,[18],> 10 µM
same,TGI,[20],> 10 µM
same,TGI,[21],> 10 µM
same,TGI,[22],> 10 µM
same,TGI,[23],> 10 µM
same,TGI,[24],> 10 µM
same,TGI,[28],> 10 µM
same,TGI,[29],> 10 µM
same,TGI,[30],> 10 µM
same,TGI,[31],> 10 µM
same,TGI,[32],> 10 µM
same,TGI,[33],> 10 µM
same,TGI,[34],> 10 µM
same,TGI,[35],> 10 µM
same,TGI,[36],> 10 µM
same,TGI,[38],> 10 µM
same,TGI,[42],> 10 µM
same,TGI,[44],> 10 µM
same,TGI,[46],> 10 µM
same,TGI,[47],> 10 µM
same,TGI,[49],> 10 µM
same,TGI,[50],> 10 µM
same,TGI,[51],> 10 µM
same,TGI,[52],> 10 µM
same,TGI,[53],> 10 µM
same,TGI,[54],> 10 µM
same,TGI,[56],> 10 µM
same,TGI,[59],> 10 µM
same,TGI,[58],> 10 µM
